Holding throughout (experiment): NCI-60 cell line screen, 48 h
Experiment [1] relates to ACHN.
Experiment [2] relates to T47D.
In experiment [3] the test system is 786-0.
The test system of experiment [4] is SW-620.
Experiment [5] relates to CAKI-1.
The subject of experiment [6] is MOLT-4.
Experiment [7] has as its system SK-MEL-2.
In experiment [8] the test system is UACC-62.
The subject of experiment [9] is SK-OV-3.
Experiment [10] relates to A498.
Experiment [11] concerns NCI-H522.
The test system of experiment [12] is SF-539.
In experiment [13] the test system is OVCAR-5.
Experiment [14] deals with Hs-578T.
Experiment [15] concerns UACC-257.
Experiment [16] relates to HT-29.
Experiment [17] deals with U-251.
For experiment [18], the system named is PC-3.
Experiment [19] concerns K562.
For experiment [20], the system named is SNB-75.

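Briefly, cells in 96-well plates were exposed to five compound concentrations for 48 h, and endpoints were estimated by linear interpolation. The concentration for 50% growth inhibition is given as GI50.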 The source made the active and inactive calls. No stated cut-off is given here; in the data, active = GI50 up to about 1.1 µM and inactive = higher.

`C=C(C)C(=O)O[C@H]1[C@H]2[C@H](OC(=O)[C@H]2C)[C@H](O)[C@@H](C)[C@@H]2C=CC(=O)[C@]21C`: the GI50 was 4.11 µM (inactive) in experiment [1]; 4.78 µM (inactive) in [2]; 2.49 µM (inactive) in experiment [3]; 2.72 µM (inactive) in experiment [4]; 2.55 µM (inactive) in experiment [5]; 3 µM (inactive) in [6]. For the same compound, the GI50 in [7] was 4.13 µM (inactive); in [8], 1.77 µM (inactive); in [9] it was 5.9 µM (inactive); in experiment [10] it was 2.69 µM (inactive); in experiment [11], 1.2 µM (inactive); in [12] it was 3.67 µM (inactive). Further, the GI50 in experiment [13] is 8.61 µM (inactive); in experiment [14] it was 4.9 µM (inactive); in experiment [15] it was 2.13 µM (inactive); in experiment [16], 3.33 µM (inactive); in [17], 3.16 µM (inactive); in experiment [18] it was 4.51 µM (inactive).

For `CCC(C)C(NC(=O)C(CCCCN)NC(=O)C(NC(=O)C(CCC(N)=O)NC(=O)C(CCCNC(=N)N)NC(C)=O)C(C)CC)C(=O)NC(Cc1c[nH]c2ccccc12)C(=O)NC(Cc1ccccc1)C(=O)NC(CCC(N)=O)C(=O)NC(CC(N)=O)C(=O)NC(CCCNC(=N)N)C(=O)NC(CCCNC(=N)N)C(=O)NC(CCSC)C(=O)NC(CCCCN)C(=O)NC(Cc1c[nH]c2ccccc12)C(=O)NC(CCCCN)C(=O)NC(CCCCN)C(N)=O` (stereo not drawn), the GI50 in experiment [1] was > 50 µM (inactive); in experiment [2] it was 16.3 µM (inactive); in [3], 12 µM (inactive); in experiment [4] it was > 50 µM (inactive); in experiment [19], 22.8 µM (inactive); in experiment [5] it was 35.5 µM (inactive). For the same compound, the GI50 was > 50 µM (inactive) in experiment [6]; > 50 µM (inactive) in experiment [7]; > 50 µM (inactive) in [8]; 31.7 µM (inactive) in experiment [9]; > 50 µM (inactive) in experiment [10]; > 50 µM (inactive) in experiment [11]. Also, the GI50 in experiment [12] was 19.7 µM (inactive); in experiment [13], 11.1 µM (inactive); in experiment [14] it was > 50 µM (inactive); in [15] it was 46.5 µM (inactive); in experiment [16], > 50 µM (inactive); in [17], 17.8 µM (inactive). Also, the GI50 in experiment [18] was > 50 µM (inactive).

In the case of `CCN(CC)CCc1c2c(nc3ccccc13)C(=O)c1cccnc1C2=O`, the GI50 was 0.719 µM (active) in [1]; 1.96 µM (inactive) in experiment [2]; 2.07 µM (inactive) in [3]; 0.424 µM (active) in experiment [4]; 5.65 µM (inactive) in experiment [20]; 1.16 µM (inactive) in experiment [19]. Further, the GI50 in [5] is 2.03 µM (inactive); in [6], 3.24 µM (inactive); in experiment [7], 2.94 µM (inactive); in experiment [8], 1.54 µM (inactive); in [9], 1.09 µM (active); in [10], 1.97 µM (inactive). Also, the GI50 is 0.731 µM (active) in [11]; 4.63 µM (inactive) in [13]; 4.99 µM (inactive) in [14]; 1.38 µM (inactive) in experiment [15]; 3.31 µM (inactive) in experiment [16]; 2.88 µM (inactive) in experiment [17]. The GI50 in experiment [18] was 2.82 µM (inactive).

Turning to `C=C1C(C(=O)OC)[C@H]1C(=O)OC` (stereo partly drawn), the GI50 in experiment [1], in experiment [2], in experiment [3], in experiment [4], in [20] and in experiment [5] was > 100 µM (inactive) throughout. Besides, the GI50 in [6], in experiment [7], in [8], in experiment [9], in experiment [10] and in experiment [11] was > 100 µM (inactive) each time. Moreover, the GI50 in experiment [12], in experiment [13], in [14], in experiment [15], in [16] and in [17] was > 100 µM (inactive) each time. For the same compound, the GI50 in [18] was > 100 µM (inactive).

Turning to `CC(C)(C)C1=CC(C)(n2[nH]c(=O)n(-c3ccccc3)c2=O)C=C(C(C)(C)C)C1=O`, the GI50 in experiment [1] was > 100 µM (inactive); in experiment [2], 59.6 µM (inactive); in experiment [3], > 100 µM (inactive); in experiment [4], > 100 µM (inactive); in experiment [20], 98.4 µM (inactive); in [19], 47 µM (inactive). Further, the GI50 in experiment [5] is > 100 µM (inactive); in experiment [7] it was > 100 µM (inactive); in experiment [8] it was 75.3 µM (inactive); in [9] it was > 100 µM (inactive); in experiment [10] it was > 100 µM (inactive); in experiment [11], > 100 µM (inactive). Besides, the GI50 in experiment [12], in experiment [14], in [15], in experiment [16], in experiment [17] and in [18] was > 100 µM (inactive) in each case.

Consider `O=C1NC2CCCCC2NC1=C(C(=O)c1ccccc1)C(=O)c1ccccc1` (stereo not drawn), for which the GI50 in [1] is 33.6 µM (inactive); in [2] it was > 100 µM (inactive); in [3] it was > 100 µM (inactive); in experiment [4], 39.3 µM (inactive); in [19], 35.5 µM (inactive); in experiment [5], 36.4 µM (inactive). Moreover, the GI50 is 20.5 µM (inactive) in experiment [6]; 33.6 µM (inactive) in experiment [7]; 22.8 µM (inactive) in experiment [8]; 25.4 µM (inactive) in experiment [9]; > 100 µM (inactive) in [10]; 18.9 µM (inactive) in [11]. Also, the GI50 in experiment [12] is 43.2 µM (inactive); in experiment [13], > 100 µM (inactive); in experiment [14], 62.8 µM (inactive); in experiment [15], 95.7 µM (inactive); in [16], 36.8 µM (inactive); in [17], 26.6 µM (inactive). For the same compound, in [18], the GI50 is 53 µM (inactive).

As for `Cc1cc(S(=O)(=O)Nc2nc(N)nc(N3CCOCC3)n2)c(SCC(=O)O)cc1Cl`, the GI50 in experiment [1], in experiment [2], in experiment [3], in experiment [4], in experiment [20] and in [19] was > 10 µM (inactive) each time. Further, the GI50 in experiment [5], in experiment [6], in experiment [7], in [9], in experiment [10] and in experiment [11] was > 10 µM (inactive) in each case. In addition, the GI50 in [12], in [13], in experiment [14], in [15], in [16] and in experiment [17] was > 10 µM (inactive) in each case. Further, the GI50 in experiment [18] was > 10 µM (inactive).

Regarding `CN(C(=O)c1ccccc1)C1CCCC(=O)CC1` (stereo not drawn), the GI50 in experiment [1], in experiment [2], in [3], in [4], in experiment [20] and in experiment [19] was > 100 µM (inactive) each time. The GI50 in experiment [5], in [7], in experiment [8], in experiment [9], in experiment [10] and in experiment [11] was > 100 µM (inactive) throughout. In addition, the GI50 in experiment [12], in [13], in experiment [14], in [15], in experiment [16] and in experiment [17] was > 100 µM (inactive) in each case. Further, the GI50 in experiment [18] is > 100 µM (inactive).

As to `CC1=NN(c2cccc(S(=O)(=O)O)c2)C2(C1)C(Cl)C(=O)N2c1nc2ccccc2s1` (stereo not drawn), the GI50 was 6.81 µM (inactive) in [1]; 9.35 µM (inactive) in experiment [2]; 5.56 µM (inactive) in experiment [3]; 4.54 µM (inactive) in experiment [4]; 4.05 µM (inactive) in [20]; 3.86 µM (inactive) in experiment [19]. Moreover, the GI50 in [5] is 2.9 µM (inactive); in [6], 2.88 µM (inactive); in [7], 4 µM (inactive); in experiment [8] it was 6.81 µM (inactive); in experiment [9] it was 11.2 µM (inactive); in experiment [10] it was 18.2 µM (inactive). For the same compound, the GI50 in [11] is 1.81 µM (inactive); in experiment [13] it was 13.4 µM (inactive); in experiment [14] it was 11.7 µM (inactive); in [15] it was 13.6 µM (inactive); in [16], 7.98 µM (inactive); in [17] it was 5.85 µM (inactive). Further, the GI50 in [18] was 10.5 µM (inactive).

As to `COc1cc(Nc2cnc3cc(F)c(F)cc3n2)cc(OC)c1`, the GI50 is > 100 µM (inactive) in experiment [1]; > 100 µM (inactive) in experiment [2]; 37.9 µM (inactive) in experiment [3]; > 100 µM (inactive) in [4]; 18.9 µM (inactive) in experiment [20]; > 100 µM (inactive) in experiment [5]. Moreover, the GI50 was > 100 µM (inactive) in experiment [6]; > 100 µM (inactive) in [7]; 18.2 µM (inactive) in experiment [8]; 21.3 µM (inactive) in experiment [9]; 53.6 µM (inactive) in experiment [10]; 11.4 µM (inactive) in experiment [11]. In addition, the GI50 was 71 µM (inactive) in [12]; > 100 µM (inactive) in experiment [13]; 37.7 µM (inactive) in experiment [14]; > 100 µM (inactive) in [15]; > 100 µM (inactive) in experiment [16]; 37.9 µM (inactive) in experiment [17]. The GI50 in [18] was > 100 µM (inactive).
